Measurements from patent US20230382925A1, “MODULATORS OF CYSTIC FIBROSIS TRANSMEMBRANE CONDUCTANCE REGULATOR” (VERTEX PHARMACEUTICALS INCORPORATED, priority 2020, published 2023).
Where two headings read alike, the source gives them in different places.

What was measured:
[1] = biological target: T1, CFTR (Homo sapiens, UniProt P13569); assay: standard Ussing Chamber Assay for CFTR potentiator activity; format: cell-based
Procedure: tert-Butyl N-[(6R,12R)-6-benzyloxy-12-methyl-6,15-bis(trifluoromethyl)-13,19-dioxa-3,4,18-triazatricyclo[12.3.1.12,5]nonadeca-1(18),2,4,14,16-pentaen-17-yl]-N-tert-butoxycarbonyl-carbamate (8.6 g, 11.77 mmol) was dissolved in ethanol (172 mL) then the flask was cycled 3 times between vacuum/nitrogen. Treated the mixture with 10% Pd/C (50% water wet, 1.8 g of 5% w/w, 0.8457 mmol) then cycled 3 times between vacuum/nitrogen and 3 times between vacuum/hydrogen and then stirred vigorously under hydrogen (balloon) at room temperature for 18 h. The mixture was cycled 3 times between vacuum/nitrogen, filtered over Celite washing with ethanol and then the filtrate was evaporated to give 7.3 g of tert-butyl N-tert-butoxycarbonyl-N-[(6R,12R)-6-hydroxy-12-methyl-6,15-bis(trifluoromethyl)-13,19-dioxa-3,4,18-triazatricyclo[12.3.1.12,5]nonadeca-1(18),2,4,14,16-pentaen-17-yl]carbamate an off-white solid. 1H NMR and MS confirmed the expected product. CFTR modulatory activity was confirmed using a standard Ussing Chamber Assay for CFTR potentiator activity.
Target sequence in this assay (P13569 whole entry, species assumed): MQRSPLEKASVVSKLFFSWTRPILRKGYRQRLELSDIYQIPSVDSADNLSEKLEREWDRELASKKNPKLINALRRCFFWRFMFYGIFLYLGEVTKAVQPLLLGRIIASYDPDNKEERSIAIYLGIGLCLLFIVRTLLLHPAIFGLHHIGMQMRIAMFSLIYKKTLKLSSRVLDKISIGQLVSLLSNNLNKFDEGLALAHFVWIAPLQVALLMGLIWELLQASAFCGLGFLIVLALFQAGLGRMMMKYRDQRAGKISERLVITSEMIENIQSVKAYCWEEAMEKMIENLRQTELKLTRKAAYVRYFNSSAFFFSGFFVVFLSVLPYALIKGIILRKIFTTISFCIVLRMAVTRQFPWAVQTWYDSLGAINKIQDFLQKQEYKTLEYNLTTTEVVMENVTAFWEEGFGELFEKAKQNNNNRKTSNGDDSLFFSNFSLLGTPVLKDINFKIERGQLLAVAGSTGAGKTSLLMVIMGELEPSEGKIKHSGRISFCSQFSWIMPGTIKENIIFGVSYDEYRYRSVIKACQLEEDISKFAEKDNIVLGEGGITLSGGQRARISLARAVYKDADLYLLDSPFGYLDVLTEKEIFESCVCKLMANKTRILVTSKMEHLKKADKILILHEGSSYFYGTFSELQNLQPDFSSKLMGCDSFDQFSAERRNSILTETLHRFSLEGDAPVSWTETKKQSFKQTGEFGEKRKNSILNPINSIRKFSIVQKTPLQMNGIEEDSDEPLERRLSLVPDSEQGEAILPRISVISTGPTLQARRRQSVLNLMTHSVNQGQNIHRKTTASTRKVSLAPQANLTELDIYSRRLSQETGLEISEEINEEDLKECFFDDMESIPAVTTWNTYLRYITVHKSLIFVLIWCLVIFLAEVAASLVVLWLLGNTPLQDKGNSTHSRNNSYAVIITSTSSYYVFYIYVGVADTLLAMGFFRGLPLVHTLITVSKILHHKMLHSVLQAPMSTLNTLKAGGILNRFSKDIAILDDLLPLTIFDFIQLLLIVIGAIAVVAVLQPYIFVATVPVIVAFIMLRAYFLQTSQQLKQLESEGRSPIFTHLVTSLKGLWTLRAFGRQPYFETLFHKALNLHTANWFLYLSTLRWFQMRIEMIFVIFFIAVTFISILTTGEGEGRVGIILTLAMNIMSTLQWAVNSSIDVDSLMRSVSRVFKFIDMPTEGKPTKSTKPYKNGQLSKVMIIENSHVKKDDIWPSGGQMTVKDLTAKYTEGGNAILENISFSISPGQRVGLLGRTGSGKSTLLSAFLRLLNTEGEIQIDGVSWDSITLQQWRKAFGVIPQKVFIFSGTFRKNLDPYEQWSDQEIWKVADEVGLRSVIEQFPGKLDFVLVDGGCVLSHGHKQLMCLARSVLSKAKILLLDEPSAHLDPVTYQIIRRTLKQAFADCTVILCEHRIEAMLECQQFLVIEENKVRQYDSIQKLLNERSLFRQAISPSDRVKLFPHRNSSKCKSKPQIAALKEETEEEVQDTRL

[2] = amide bond, 13-membered ring, HATU/DIEA, DMF
[3] = biological target: T1, CFTR; assay: Membrane Potential Dye, Enteroid Assay A; format: cell-based; conditions: for EC50: read-out: Ent. A EC50
Procedure, shortened: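 Primary human intestinal enteroid cells exposed to compound for 18–24 hours at 37 °C, then loaded 25 min with methyl oxonol membrane potential dye plus CaCC inhibitors. Chloride transport triggered in chloride-free buffer with 10 μM forskolin, 100 μM IBMX and 300 nM Compound III, fluorescence read 15 min; % Activity relative to a triple-combination corrector/potentiator control.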
Target sequence in this assay (P13569 with tags, fused parts or gaps DEL508-508): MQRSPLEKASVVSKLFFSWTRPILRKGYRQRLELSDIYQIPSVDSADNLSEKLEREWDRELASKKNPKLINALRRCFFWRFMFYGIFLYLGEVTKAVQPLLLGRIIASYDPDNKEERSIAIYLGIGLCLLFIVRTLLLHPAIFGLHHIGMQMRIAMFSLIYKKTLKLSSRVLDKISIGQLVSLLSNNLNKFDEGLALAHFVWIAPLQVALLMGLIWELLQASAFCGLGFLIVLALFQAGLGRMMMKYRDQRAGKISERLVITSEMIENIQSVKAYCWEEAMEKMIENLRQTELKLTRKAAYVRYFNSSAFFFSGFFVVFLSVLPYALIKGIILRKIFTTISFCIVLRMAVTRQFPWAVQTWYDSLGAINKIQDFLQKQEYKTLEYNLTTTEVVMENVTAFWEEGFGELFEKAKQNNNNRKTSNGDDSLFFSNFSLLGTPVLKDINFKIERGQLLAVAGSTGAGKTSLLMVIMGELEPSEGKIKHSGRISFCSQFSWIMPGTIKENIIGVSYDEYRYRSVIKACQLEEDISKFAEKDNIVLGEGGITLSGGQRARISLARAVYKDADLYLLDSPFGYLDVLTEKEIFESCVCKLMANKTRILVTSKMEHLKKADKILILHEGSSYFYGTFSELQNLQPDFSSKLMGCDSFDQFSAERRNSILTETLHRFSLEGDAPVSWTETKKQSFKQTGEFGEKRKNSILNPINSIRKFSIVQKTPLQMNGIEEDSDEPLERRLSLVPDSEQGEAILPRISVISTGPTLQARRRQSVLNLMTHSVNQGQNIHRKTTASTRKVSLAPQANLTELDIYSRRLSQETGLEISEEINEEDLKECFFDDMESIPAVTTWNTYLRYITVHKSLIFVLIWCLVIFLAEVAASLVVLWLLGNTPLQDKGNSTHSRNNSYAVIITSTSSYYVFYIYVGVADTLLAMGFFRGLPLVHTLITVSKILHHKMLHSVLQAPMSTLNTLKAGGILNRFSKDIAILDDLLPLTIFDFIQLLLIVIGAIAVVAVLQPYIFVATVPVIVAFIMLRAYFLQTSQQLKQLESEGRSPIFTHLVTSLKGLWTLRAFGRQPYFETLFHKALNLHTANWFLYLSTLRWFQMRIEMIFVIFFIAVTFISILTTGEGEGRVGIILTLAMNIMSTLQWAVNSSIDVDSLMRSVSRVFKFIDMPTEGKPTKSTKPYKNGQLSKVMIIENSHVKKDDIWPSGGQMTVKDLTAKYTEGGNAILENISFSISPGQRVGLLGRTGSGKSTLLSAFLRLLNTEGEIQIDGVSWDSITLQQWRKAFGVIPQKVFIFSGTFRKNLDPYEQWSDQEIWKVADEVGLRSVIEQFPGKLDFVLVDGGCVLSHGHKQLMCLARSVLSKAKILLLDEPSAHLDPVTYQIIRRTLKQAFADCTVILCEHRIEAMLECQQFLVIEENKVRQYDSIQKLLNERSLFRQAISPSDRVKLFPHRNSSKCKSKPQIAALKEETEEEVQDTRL

[4] = biological target: T1, CFTR; assay: Membrane Potential Dye, Enteroid Assay B; format: cell-based; conditions: for EC50: read-out: Ent. B EC50
Procedure, shortened: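 Human intestinal enteroid cells exposed to compound 18-24 h at 37 °C, then loaded with methyl oxonol membrane-potential dye plus CaCC blockers. Chloride transport triggered in chloride-free buffer with 10 μM forskolin, 100 μM IBMX, 300 nM Compound III; fluorescence read 15 min, expressed as % of triple-corrector/potentiator combination control.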
Target sequence in this assay (P13569 with tags, fused parts or gaps DEL508-508): as above

[5] = biological target: T2, CFTR (Homo sapiens, UniProt P13569, DEL508-508); assay: HBE2 assay: Ussing chamber assay of CFTR-mediated short-circuit currents (F508del/MF-HBE, with 44 nM potentiator); format: cell-based; conditions: F508del/MF-HBE cells; single fixed concentration 3 μM with 44 nM (6R,12R)-17-amino-12-methyl-6,15-bis(trifluoromethyl)-...-pentaen-6-ol, 18-24 hours, 20% human serum
T2 construct: human bronchial epithelial (HBE) cells derived from CF subjects heterozygous for F508del; endogenous in cells; host or cells: primary human bronchial epithelial cells from CF subjects (F508del/MF-HBE)
Procedure: 1. Ussing Chamber Assay of CFTR-mediated Short-circuit Currents
Ussing chamber experiments were performed using human bronchial epithelial (HBE) cells derived from CF subjects heterozygous for F508del and a minimal function CFTR mutation (F508del/MF-HBE) and cultured as previously described (Neuberger T, Burton B, Clark H, Van Goor F Methods Mol Biol 2011:741:39-54). After four days the apical media was removed, and the cells were grown at an air liquid interface for >14 days prior to use.
To isolate the CFTR-mediated short-circuit (ISC) current, F508del/MF-HBE grown on Costar® Snapwell™ cell culture inserts were mounted in an Ussing chamber and the transepithelial ISC was measured under voltage-clamp recording conditions (Vhold=0 mV) at 37° C. The basolateral solution contained (in mM) 145 NaCl, 0.83 K2HPO4, 3.3 KH2PO4, 1.2l MgCl2, 1.2 CaCl2), 10 Glucose, 10 HEPES (pH adjusted to 7.4 with NaOH) and the apical solution contained (in mM) 145 NaGluconate, 1.2 MgCl2, 1.2 CaCl2), 10 glucose, 10 HEPES (pH adjusted to 7.4 with NaOH) and 30 μM amiloride to block the epithelial sodium channel. […] The CFTR-mediated ISC (μA/cm^2) for each condition was determined from the peak forskolin response to the steady-state current following inhibition. […]
The activity of the CFTR corrector compounds on the CFTR-mediated ISC was determined in Ussing chamber studies as described above. […]

T2 sequence (P13569 with tags, fused parts or gaps DEL508-508): as above

Row | SMILES | Ent. A Max Activity (%) [3] | EC50 [3] | Ent. B Max Activity (%) [4] | EC50 [4] | HBE2 Activity at 3 μM [5] | also measured
1 | C[C@@H]1CCCCC[C@](O)(C(F)(F)F)C2=NN=C(O2)c2nc(c(C(F)(F)F)cc2N)O1 [(6R,12R)-17-amino-12-methyl-6,15-bis(trifluoromethyl)-13,19-dioxa-3,4,18-triazatricyclo[12.3.1.12,5] nonadeca-1(18),2,4,14,16-pentaen-6-ol] |  |  |  |  |  | CFTR modulatory activity (potentiator activity) [1]: confirmed
2 | Cc1cccc(C)c1-c1cc2nc(n1)NS(=O)(=O)c1cccc(c1)C(=O)N(C1CC3(CCN(C(=O)OC(C)(C)C)CC3)C1)[C@H](CC(C)C)CO2 [Compound 13, tert-Butyl 2-[(11R)-6-(2,6-dimethylphenyl)-11-isobutyl-2,2,13-trioxo-9-oxa-2λ^6-thia-3,5,12,19-tetrazatricyclo[12.3.1.14,8]nonadeca-1(18),4(19),5,7,14,16-hexaen-12-yl]-7-azaspiro[3.5]nonane-7-carboxylate] | +++ (+++ is >60%) | < 1 µM | +++ (+++ is >60%) | < 1 µM |  | ring closure, isolated yield ([2]; from Cc1cccc(C)c1-c1cc(OC[C@@H](CC(C)C)NC2CC3(CCN(C(=O)OC(C)(C)C)CC3)C2)nc(NS(=O)(=O)c2cccc(C(=O)O)c2)n1, 68.6 mM, 25.0 °C, 13.0 h): 78%
3 | Cc1cccc(C)c1-c1cc2nc(n1)NS(=O)(=O)c1cccc(c1)C(=O)N(C1CC3(CC3)C1)[C@H](CC1(C(F)(F)F)CC1)CO2 [Compound 198, (11R)-6-(2,6-Dimethylphenyl)-2,2-dioxo-12-spiro[2.3]hexan-5-yl-11-[[1-(trifluoromethyl)cyclopropyl]methyl]-9-oxa-2λ^6-thia-3,5,12,19-tetrazatricyclo[12.3.1.14,8]nonadeca-1(18),4(19),5,7,14,16-hexaen-13-one] | +++ (+++ is >60%) | < 1 µM | +++ (+++ is >60%) | < 1 µM |  | ring closure, isolated yield ([2]; from Cc1cccc(C)c1-c1cc(OC[C@@H](CC2(C(F)(F)F)CC2)NC2CC3(CC3)C2)nc(NS(=O)(=O)c2cccc(C(=O)O)c2)n1, 49.1 mM, 21.0 h): 60%
4 | Cc1cccc(C)c1-c1cc2nc(n1)NS(=O)(=O)c1cccc(c1)C(=O)N(C1CCCN(C)C1=O)[C@H](CC(C)(C)C)CO2 (stereo partly drawn) [Compound 507, (11R)-6-(2,6-Dimethylphenyl)-11-(2,2-dimethylpropyl)-12-(1-methyl-2-oxo-3-piperidyl)-2,2-dioxo-9-oxa-2λ^6-thia-3,5,12,19-tetrazatricyclo[12.3.1.14,8]nonadeca-1(18),4(19),5,7,14,16-hexaen-13-one] |  |  |  |  | +++ (+++ is >60%) | 
5 | Cc1cccc(C)c1-c1cc2nc(n1)NS(=O)(=O)c1cccc(c1)C(=O)N(C1CCN(C)C1=O)[C@H](CC(C)(C)C)CO2 (stereo partly drawn) [Compound 508, (11R)-6-(2,6-Dimethylphenyl)-11-(2,2-dimethylpropyl)-12-(1-methyl-2-oxo-pyrrolidin-3-yl)-2,2-dioxo-9-oxa-2λ^6-thia-3,5,12,19-tetrazatricyclo[12.3.1.14,8]nonadeca-1(18),4(19),5,7,14,16-hexaen-13-one] |  |  |  |  | +++ (+++ is >60%) | 
